From US20260325661A1, “ANTIBODY-CONJUGATED IMMUNO-ACTIVATING SMALL MOLECULE COMPOUND, AND USE” (SHENZHEN CONJUGENIX PHARMACEUTICAL TECHNOLOGY CO., LTD, priority 2023, published 2026)

What follows are compounds tested on human peripheral blood mononuclear cells (PBMCs) (assay: ELISA assay of immunocyte activator: induction of IFN-γ in human PBMCs). Settings: Homo sapiens, PBMC, 24 h, 37 °C, Note a: sample pretreated with human liver microsomal enzyme, 2 h, read-out: EC50 IFN-γ ratio (inducing human PBMCs to produce IFN-γ).
Format: cell-based
Method: The immune activity of each compound is represented by the function of inducing human peripheral blood mononuclear cells (PBMCs) to produce the immune cytokine IFN-γ by, and the EC50 values thereof are shown in Table 3.
• 1) Peripheral blood samples from healthy human volunteer were collected into heparin anticoagulant tubes to reach 5 mL of fresh blood, and PBS was added at a ratio of 1:1 to dilute the blood (2 mL+2 mL in conventional blood collection tubes). • 2) 5 mL of lymphocyte separation medium was put in a 15 mL sterile centrifuge tube for use. • 3) The diluted blood was aspirated and slowly added from 1 cm above the separation medium along the tube wall, so that the diluted blood overlaid the separation medium and formed a distinct interface therewith. • 4) The centrifuge tube was centrifuged at 2000 rpm at room temperature for 20 min. Now five layers formed in the centrifuge tube: the top layer was plasma layer, and the layer between the plasma layer and the lymphocyte separation medium was the lymphocyte layer as a white film. • 5) The mononuclear cell layer as a white film in the middle was aspirated carefully and mononuclear cells were aspirated as many as possible. The mononuclear cells were washed by more than 5 volumes of PBS twice, and each time, the mononuclear cells were centrifuged at 1500 rpm for 10 min. • 6) The supernatant was removed, then 1 mL of 1640 medium was added and mixed uniformly. A small amount of the mixture was taken for cell counting.
The prepared PBMCs were plated in a 96-well plate (Costar, 3894) (2×10^5 cells per well). Each compound in Table 3 was taken and added into the wells with plated cells at ten concentrations with uniform gradient distribution (0.0001-10 μM, diluted with […] medium containing […]).

Structure (SMILES)	EC50 [µM]
CCCCOc1nc(N)c2c(n1)n(Cc1cn(CCOCCOCCOCCNC(=O)OCc3ccc(NC(=O)[C@H](CCCNC(N)=O)NC(=O)[C@@H](NC(=O)CCCCC(=O)O)C(C)C)cc3)nn1)c(=O)n2C1CCCO1 (stereo partly shown) [Compound K9]	9
COCCOc1nc(N)c2c(n1)n(Cc1ccc(CNC(=O)CCc3cn(CCOCCOCCOCCNC(=O)OCc4ccc(NC(=O)[C@H](CCCNC(N)=O)NC(=O)[C@@H](NC(=O)CCCCCN5C(=O)C=CC5=O)C(C)C)cc4)nn3)cc1)c(=O)n2C(=O)N1CCN(C)CC1 [Compound K10]	0.21
COCCOc1nc(N)c2c(n1)n(Cc1ccc(CNC(=O)CCc3cn(CCOCCOCCOCCNC(=O)OCc4ccc(NC(=O)[C@H](CCCNC(N)=O)NC(=O)[C@@H](NC(=O)CCCCC(=O)O)C(C)C)cc4)nn3)cc1)c(=O)n2C1CCCO1 (stereo partly shown) [Compound K12]	0.2
CCOC(=O)NC(=O)n1c(=O)n(Cc2ccc(CNC(=O)CCc3cn(CCOCCOCCOCCNC(=O)CCN4C(=O)C=CC4=O)nn3)cc2)c2nc(OCCOC)nc(N)c21 [Compound K14]	0.01
CCOC(=O)NC(=S)n1c(=O)n(Cc2ccc(CNC(=O)CCc3cn(CCOCCOCCOCCNC(=O)CCN4C(=O)C=CC4=O)nn3)cc2)c2nc(OCCOC)nc(N)c21 [Compound K15]	0.012

Same assay, conditions: Homo sapiens, PBMC, 24 h, 37 °C, Note c: sample pretreated with Cathepsin-B (10 μg) in PBS, room temperature, 3 h, read-out: EC50 IFN-γ ratio (inducing human PBMCs to produce IFN-γ)

Structure (SMILES)	EC50 [µM]
CCCCOc1nc(N)c2c(n1)c(Cc1ccc3c(c1)CN(C(=O)/C=C/C(=O)c1ccc(OC)cc1)CC3)cn2C(=O)OCc1ccc(NC(=O)[C@H](CCCNC(N)=O)NC(=O)[C@@H](NC(=O)CCOCCOCCOCCOCCN2C(=O)C=CC2=O)C(C)C)cc1 [Compound K13]	0.11
CCCCOc1nc(N)c2c(n1)N(Cc1cn(CCNC(=O)OCc3ccc(NC(=O)[C@H](CCCNC(N)=O)NC(=O)[C@@H](NC(=O)CCOCCOCCOCCOCCN(CCOCCOCCOCCOCCC(=O)N[C@H](C(=O)N[C@@H](CCCNC(N)=O)C(=O)Nc4ccc(COC(=O)NCCn5cc(Cn6c(=O)[nH]c7c(N)nc(OCCCC)nc76)nn5)cc4)C(C)C)C(=O)CCN4C(=O)C=CC4=O)C(C)C)cc3)nn1)C(=O)C2 [Compound K22]	0.08

Same assay, conditions: Homo sapiens, PBMC, 24 h, 37 °C, no pretreatment marked, read-out: EC50 IFN-γ ratio (inducing human PBMCs to produce IFN-γ)

Structure (SMILES)	EC50 [µM]
CCCCOc1nc(N)c2[nH]c(=O)n(Cc3cn(CCOCCOCCOCC(=O)N[C@H](CCCCN=[N+]=[N-])C(=O)O)nn3)c2n1 [Compound 102-N3]	0.18
CC[C@H](C)[C@@H]([C@@H](CC(=O)N1CCCC1[C@H](OC)[C@@H](C)C(=O)N[C@H](C)[C@@H](O)c1ccccc1)OC)N(C)C(=O)[C@@H](NC(=O)[C@H](C(C)C)N(C)C(=O)OCc1ccc(NC(=O)[C@H](CCCNC(N)=O)NC(=O)[C@@H](NC(=O)C(CCCCc2cn(CCOCCOCCOCCNC(=O)CCN3C(=O)C=CC3=O)nn2)NC(=O)CCC(=O)NCc2ccc(Cn3c(=O)[nH]c4c(N)nc(OCCOC)nc43)cc2)C(C)C)cc1)C(C)C (stereo partly shown) [Compound K1]	0.1
COCCOc1nc(N)c2[nH]c(=O)n(Cc3ccc(CNC(=O)CCC(=O)N[C@@H](CCCCNC(=O)OCc4ccc(NC(=O)[C@H](CCCNC(N)=O)NC(=O)[C@@H](NC(=O)CCCCCN5C(=O)C=CC5=O)C(C)C)cc4)C(=O)NCCOCCOCCOCCOCCNC(=O)CCC(=O)N4Cc5ccccc5C#Cc5ccccc54)cc3)c2n1 [Compound K2]	0.05
COCCOc1nc(N)c2[nH]c(=O)n(Cc3ccc(CNC(=O)CCC(=O)NC(CCCCc4cn(CCOCCOCCOCCNC(=O)CCN5C(=O)C=CC5=O)nn4)C(=O)N[C@H](C(=O)N[C@@H](CCCNC(N)=O)C(=O)Nc4ccc(COC(=O)NC[C@H](C)c5ccc(-c6c(O)cc(C)c7[nH]c(=O)c8sccc8c67)cc5)cc4)C(C)C)cc3)c2n1 (stereo partly shown) [Compound K3]	0.2
CC[C@H](C)[C@@H]([C@@H](CC(=O)N1CCCC1[C@H](OC)[C@@H](C)C(=O)N[C@H](C)[C@@H](O)c1ccccc1)OC)N(C)C(=O)[C@@H](NC(=O)[C@H](C(C)C)N(C)C(=O)OCc1ccc(NC(=O)[C@H](CCCNC(N)=O)NC(=O)[C@@H](NC(=O)C(CCCCc2cn(CCOCCOCCOCCC(=O)O)nn2)NC(=O)CCC(=O)NCc2ccc(Cn3c(=O)[nH]c4c(N)nc(OCCOC)nc43)cc2)C(C)C)cc1)C(C)C (stereo partly shown) [Compound K5]	0.13
CCCCOc1nc(N)c2[nH]c(=O)n(Cc3cn(CCOCCOCCOCC(=O)N[C@H](CCCCNC(=O)OCc4ccc(NC(=O)[C@H](CCCNC(N)=O)NC(=O)[C@@H](NC(=O)CCCCCN5C(=O)C=CC5=O)C(C)C)cc4)C(=O)NCCOCCOCCOCCOCCNC(=O)CCC(=O)N4Cc5ccccc5C#Cc5ccccc54)nn3)c2n1 [Compound K7]	0.045
CCCCOc1nc(N)c2[nH]c(=O)n(Cc3cn(CCOCCOCCOCC(=O)N[C@H](CCCCc4cn(COCCOCCOCCOCCN5C(=O)C=CC5=O)nn4)C(=O)N[C@H](C(=O)N[C@@H](CCCNC(N)=O)C(=O)Nc4ccc(COC(=O)NC[C@H](C)c5ccc(-c6c(O)cc(C)c7[nH]c(=O)c8sccc8c67)cc5)cc4)C(C)C)nn3)c2n1 [Compound K8]	0.11
CCCCOc1nc(N)c2[nH]c(=O)n(Cc3cn(CCOCCOCCOCCN(C[C@H](C)c4ccc(-c5c(O)cc(C)c6[nH]c(=O)c7sccc7c56)cc4)C(=O)OCc4ccc(NC(=O)[C@H](CCCNC(N)=O)NC(=O)[C@@H](NC(=O)CCCCCN5C(=O)C=CC5=O)C(C)C)cc4)nn3)c2n1 [Compound K18]	0.09
CCCCOc1nc(N)c2[nH]c(=O)n(Cc3cn(CCOCCOCCOCCn4cc(CCCCN(C[C@H](C)c5ccc(-c6c(O)cc(C)c7[nH]c(=O)c8sccc8c67)cc5)C(=O)OCc5ccc(NC(=O)[C@H](CCCNC(N)=O)NC(=O)[C@@H](NC(=O)CCCCCN6C(=O)C=CC6=O)C(C)C)cc5)nn4)nn3)c2n1 [Compound K19]	0.08
C=CC(=O)N1CCN(c2ncnc3c(F)c(-c4c(F)cccc4OCCc4cn(CCCNc5nc(NCCOCCOCCOCCNC(=O)CCC(=O)NCc6ccc(Cn7c(=O)[nH]c8c(N)nc(OCCOC)nc87)cc6)nc(N6CCC(CNC(=O)OCc7ccc(NC(=O)[C@H](CCCNC(N)=O)NC(=O)[C@@H](NC(=O)CCOCCOCCOCCN=[N+]=[N-])C(C)C)cc7)CC6)n5)nn4)c(Cl)cc23)CC1 [Compound K21]	0.006
COCCOc1nc(N)c2[nH]c(=O)n(Cc3ccc(CNC(=O)CCc4cn(CCOCCOCCOCCN(CCOCCOCCOCCn5cc(CCC(=O)NCc6ccc(Cn7c(=O)[nH]c8c(N)nc(OCCOC)nc87)cc6)nn5)C(=O)OCc5ccc(NC(=O)[C@H](CCCNC(N)=O)NC(=O)[C@@H](CC(=O)NCOCCOCCOCCN=[N+]=[N-])C(C)C)cc5)nn4)cc3)c2n1 [Compound K23]	0.03
COCCOc1nc(N)c2[nH]c(=O)n(Cc3ccc(CNC(=O)CCC(=O)NC(CCCCc4cn(CCOCCOCCOCCNC(=O)CCN5C(=O)C=CC5=O)nn4)C(=O)NCCOCCOCCOCCOCCNC(=O)CCC(=O)N4Cc5ccccc5C#Cc5ccccc54)cc3)c2n1 (stereo not shown) [Compound K24]	0.003
COCCOc1nc(N)c2[nH]c(=O)n(Cc3ccc(CNC(=O)CCC(=O)NC(CCCCc4cn(CCOCCOCCOCCNC(=O)CCN5C(=O)C=CC5=O)nn4)C(=O)NCCOCCOCCOCCOc4ccc(-c5nnc(C)nn5)cc4)cc3)c2n1 (stereo not shown) [Compound K25]	0.005

Same assay, conditions: Homo sapiens, PBMC, 24 h, pH 5, 24 h, 37 °C; Note d: sample pretreated by hydrolysis, acetate buffer pH 5, 37 °C, 72 h; read-out: EC50 IFN-γ ratio (inducing human PBMCs to produce IFN-γ)

Structure (SMILES)	EC50 [µM]
COCCOc1nc(N)c2c(n1)n(Cc1ccc(CNC(=O)CCc3cn(CCOCCOCCOCCNC(=O)CCN4C(=O)C=CC4=O)nn3)cc1)c(=O)n2COC(=O)OC(C)C [Compound K16]	0.011

Same assay, conditions: Homo sapiens, PBMC; 24 h, 37 °C; no pretreatment marked; read-out: EC50 IFN-γ ratio (inducing human PBMCs to produce IFN-γ)

Structure (SMILES)	EC50 [µM]
CC[C@@]1(O)C(=O)OCc2c1cc1n(c2=O)Cc2c-1nc1cc(F)c(C)c3c1c2[C@@H](NC(=O)CO[Si](OCCOCCOCCNC(=O)C(CCCCc1cn(CCOCCOCCOCCNC(=O)CCN2C(=O)C=CC2=O)nn1)NC(=O)CCC(=O)NCc1ccc(Cn2c(=O)[nH]c4c(N)nc(OCCOC)nc42)cc1)(C(C)C)C(C)C)CC3 (stereo partly shown) [Compound K17]	0.21
